± gives the expanded uncertainty stated by the source.
What was measured:
[1] = 100 kPa, Liquid; for speed of sound: Frequency=2 MHz, Linear variable-path acoustic interferometer; for mass density: Vibrating tube method
[2] = xn = mol fraction of the nth substance listed; conditions: 100 kPa, Liquid, x1 = 1; for speed of sound: Frequency=2 MHz, Linear variable-path acoustic interferometer; for mass density: Vibrating tube method

| Structure (SMILES) | speed of sound ([1]; 303.15 K) [m/s] | mass density ([1]; 303.15 K) [kg/m3] | mass density ([1]; 308.15 K) [kg/m3] | speed of sound ([1]; 313.15 K) [m/s] | mass density ([1]; 313.15 K) [kg/m3] | mass density ([1]; 318.15 K) [kg/m3] | speed of sound ([2]; 303.15 K) [m/s] | mass density ([2]; 303.15 K) [kg/m3] | mass density ([2]; 308.15 K) [kg/m3] | speed of sound ([2]; 313.15 K) [m/s] | mass density ([2]; 313.15 K) [kg/m3] | mass density ([2]; 318.15 K) [kg/m3] |
| --- | --- | --- | --- | --- | --- | --- | --- | --- | --- | --- | --- | --- |
| Cc1ccccc1O [2-methylphenol] | 1488.1 ± 2.5 | 1037.02 ± 1.2 | 1032.58 ± 1.2 | 1453 ± 2.5 | 1028.19 ± 1.2 | 1023.82 ± 1.2 | – | – | – | – | – | – |
| Cc1cccc(O)c1 [3-methylphenol] | 1466.1 ± 2.5 | 1025.71 ± 1.2 | 1021.7 ± 1.2 | 1436.1 ± 2.5 | 1017.69 ± 1.2 | 1013.65 ± 1.2 | – | – | – | – | – | – |
| Cc1ccc(O)cc1 [4-methylphenol] | 1473 ± 2.5 | 1026.47 ± 1.2 | 1022.56 ± 1.2 | 1440.2 ± 2.5 | 1018.64 ± 1.2 | 1014.68 ± 1.2 | – | – | – | – | – | – |
| CCO [ethanol] | 1127 ± 2.4 | 781.08 ± 1.2 | 776.59 ± 1.2 | 1094 ± 2.4 | 772.23 ± 1.2 | 767.61 ± 1.2 | – | – | – | – | – | – |
| CCO [ethanol] + Cc1ccc(O)cc1 | – | – | – | – | – | – | 1127 ± 2.4 | 781.08 ± 1.2 | 776.59 ± 1.2 | 1094 ± 2.4 | 772.23 ± 1.2 | 767.61 ± 1.2 |
| CCO [ethanol] + Cc1cccc(O)c1 | – | – | – | – | – | – | 1127 ± 2.4 | 781.08 ± 1.2 | 776.59 ± 1.2 | 1094 ± 2.4 | 772.23 ± 1.2 | 767.61 ± 1.2 |
| CCO [ethanol] + Cc1ccccc1O | – | – | – | – | – | – | 1127 ± 2.4 | 781.08 ± 1.2 | 776.59 ± 1.2 | 1094 ± 2.4 | 772.23 ± 1.2 | 767.61 ± 1.2 |

Source: the NIST ThermoML archive (doi:10.1016/j.jct.2018.12.039)
